Structures can show the parent of a compound that is named as a salt.
Legend:
Conditions in all cases: exposure time: 72 h
[1] = test system: E13 (patient-derived glioblastoma stem cells of classical subtype); test: surviving fraction (nuclei count normalised to DMSO); higher = more cells surviving (less toxic)
[2] = test system: E21 (patient-derived glioblastoma stem cells of mesenchymal subtype); test: as above
[3] = test system: E28 (patient-derived glioblastoma stem cells of classical subtype); test: as above
[4] = test system: E31 (patient-derived glioblastoma stem cells of proneural subtype); test: as above
[5] = test system: E34 (patient-derived glioblastoma stem cells of proneural subtype); test: as above
[6] = test system: E57 (patient-derived glioblastoma stem cells of mesenchymal subtype); test: as above
[7] = test system: FT3469 (normal neural stem cell line); test: as above
[8] = test system: E13; test: phenotypic distance (Euclidean, principal components) from DMSO controls (arbitrary units); higher = stronger morphological change
[9] = test system: E21; test: as above
[10] = test system: E28; test: as above
[11] = test system: E31; test: as above
[12] = test system: E34; test: as above
[13] = test system: E57; test: as above
[14] = test system: FT3469; test: as above
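Wherever phenotypic distance (Euclidean, principal components) from DMSO controls is given: cell Painting imaging in 384-well plates, CellProfiler features reduced to at least 20 principal components, Euclidean distance versus same-plate DMSO vehicle wells (0.1% v/v), median over six images per well.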
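Wherever surviving fraction (nuclei count normalised to DMSO) is given: nuclei counted by high-content imaging of Hoechst-stained cells in laminin-coated 384-well plates, relative to 0.1% DMSO vehicle wells, with staurosporine as cell-death control.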

COc1cc(NS(C)(=O)=O)ccc1Nc1c2ccccc2nc2ccccc12 [Amsacrine]
Conditions	phenotypic distance	surviving fraction
[1], 4.1 nM	–	0.946
[1], 12.3 nM	–	0.807
[1], 37 nM	–	0.489
[1], 111.1 nM	–	0.414
[1], 333.3 nM	–	0.414
[1], 1000 nM	–	0.387
[1], 3000 nM	–	0.132
[2], 4.1 nM	–	0.908
[2], 12.3 nM	–	1.08
[2], 37 nM	–	0.72
[2], 111.1 nM	–	0.45
[2], 333.3 nM	–	0.388
[2], 1000 nM	–	0.197
[2], 3000 nM	–	0.0813
[3], 4.1 nM	–	0.875
[3], 12.3 nM	–	0.529
[3], 37 nM	–	0.427
[3], 111.1 nM	–	0.474
[3], 333.3 nM	–	0.374
[3], 1000 nM	–	0.467
[3], 3000 nM	–	0.126
[4], 4.1 nM	–	0.573
[4], 12.3 nM	–	0.509
[4], 37 nM	–	0.314
[4], 111.1 nM	–	0.247
[4], 333.3 nM	–	0.288
[4], 1000 nM	–	0.244
[4], 3000 nM	–	0.0342
[5], 4.1 nM	–	0.977
[5], 12.3 nM	–	0.867
[5], 37 nM	–	0.823
[5], 111.1 nM	–	0.552
[5], 333.3 nM	–	0.493
[5], 1000 nM	–	0.484
[5], 3000 nM	–	0.379
[6], 4.1 nM	–	0.935
[6], 12.3 nM	–	0.759
[6], 37 nM	–	0.484
[6], 111.1 nM	–	0.21
[6], 333.3 nM	–	0.192
[6], 1000 nM	–	0.161
[6], 3000 nM	–	0.0825
[7], 4.1 nM	–	0.745
[7], 12.3 nM	–	0.751
[7], 37 nM	–	0.593
[7], 111.1 nM	–	0.731
[7], 333.3 nM	–	0.745
[7], 1000 nM	–	0.645
[7], 3000 nM	–	0.363
[8], 4.1 nM	0.565	–
[8], 12.3 nM	1.43	–
[8], 37 nM	4.51	–
[8], 111.1 nM	6.51	–
[8], 333.3 nM	6.57	–
[8], 1000 nM	6.84	–
[8], 3000 nM	7.75	–
[9], 4.1 nM	0.893	–
[9], 12.3 nM	1.83	–
[9], 37 nM	2.5	–
[9], 111.1 nM	6.57	–
[9], 333.3 nM	6.68	–
[9], 1000 nM	5.68	–
[9], 3000 nM	7.87	–
[10], 4.1 nM	1.15	–
[10], 12.3 nM	2.1	–
[10], 37 nM	3.15	–
[10], 111.1 nM	2.93	–
[10], 333.3 nM	3.24	–
[10], 1000 nM	3.28	–
[10], 3000 nM	4.07	–
[11], 4.1 nM	1.63	–
[11], 12.3 nM	3.02	–
[11], 37 nM	3.7	–
[11], 111.1 nM	3.82	–
[11], 333.3 nM	2.97	–
[11], 1000 nM	3	–
[11], 3000 nM	6.79	–
[12], 4.1 nM	0.614	–
[12], 12.3 nM	1.45	–
[12], 37 nM	2.78	–
[12], 111.1 nM	6.15	–
[12], 333.3 nM	5.83	–
[12], 1000 nM	4.78	–
[12], 3000 nM	3.81	–
[13], 4.1 nM	0.741	–
[13], 12.3 nM	2.05	–
[13], 37 nM	4.75	–
[13], 111.1 nM	10.6	–
[13], 333.3 nM	10.7	–
[13], 1000 nM	8.66	–
[13], 3000 nM	6.92	–
[14], 4.1 nM	0.866	–
[14], 12.3 nM	1.42	–
[14], 37 nM	1.99	–
[14], 111.1 nM	2.25	–
[14], 333.3 nM	2.14	–
[14], 1000 nM	2.2	–
[14], 3000 nM	3.03	–

N=c1ccn2c(n1)O[C@H]1[C@H](O)[C@@H](CO)O[C@H]12 [Ancitabine hydrochloride]
Conditions	phenotypic distance	surviving fraction
[1], 4.1 nM	–	0.857
[1], 12.3 nM	–	0.724
[1], 37 nM	–	0.884
[1], 111.1 nM	–	0.812
[1], 333.3 nM	–	0.716
[1], 1000 nM	–	0.67
[1], 3000 nM	–	0.49
[2], 4.1 nM	–	0.896
[2], 12.3 nM	–	0.889
[2], 37 nM	–	0.909
[2], 111.1 nM	–	0.832
[2], 333.3 nM	–	0.693
[2], 1000 nM	–	0.636
[2], 3000 nM	–	0.422
[3], 4.1 nM	–	0.837
[3], 12.3 nM	–	1.18
[3], 37 nM	–	0.826
[3], 111.1 nM	–	0.886
[3], 333.3 nM	–	0.687
[3], 1000 nM	–	0.653
[3], 3000 nM	–	0.482
[4], 4.1 nM	–	0.978
[4], 12.3 nM	–	0.749
[4], 37 nM	–	0.721
[4], 111.1 nM	–	0.594
[4], 333.3 nM	–	0.669
[4], 1000 nM	–	0.394
[4], 3000 nM	–	0.176
[5], 4.1 nM	–	0.976
[5], 12.3 nM	–	1.09
[5], 37 nM	–	0.963
[5], 111.1 nM	–	0.86
[5], 333.3 nM	–	0.71
[5], 1000 nM	–	0.689
[5], 3000 nM	–	0.593
[6], 4.1 nM	–	0.931
[6], 12.3 nM	–	0.805
[6], 37 nM	–	0.73
[6], 111.1 nM	–	0.655
[6], 333.3 nM	–	0.409
[6], 1000 nM	–	0.321
[6], 3000 nM	–	0.212
[7], 4.1 nM	–	0.699
[7], 12.3 nM	–	0.86
[7], 37 nM	–	0.964
[7], 111.1 nM	–	0.691
[7], 333.3 nM	–	0.668
[7], 1000 nM	–	0.679
[7], 3000 nM	–	0.682
[8], 4.1 nM	1.7	–
[8], 12.3 nM	1.23	–
[8], 37 nM	1.32	–
[8], 111.1 nM	1.29	–
[8], 333.3 nM	2.15	–
[8], 1000 nM	3.33	–
[8], 3000 nM	5.43	–
[9], 4.1 nM	1.35	–
[9], 12.3 nM	1.44	–
[9], 37 nM	1.87	–
[9], 111.1 nM	2.14	–
[9], 333.3 nM	3.95	–
[9], 1000 nM	5.57	–
[9], 3000 nM	6.36	–
[10], 4.1 nM	2.22	–
[10], 12.3 nM	2	–
[10], 37 nM	1.29	–
[10], 111.1 nM	1.66	–
[10], 333.3 nM	1.88	–
[10], 1000 nM	2.56	–
[10], 3000 nM	2.87	–
[11], 4.1 nM	1.4	–
[11], 12.3 nM	1.46	–
[11], 37 nM	1.63	–
[11], 111.1 nM	2.22	–
[11], 333.3 nM	2.92	–
[11], 1000 nM	3.39	–
[11], 3000 nM	3.87	–
[12], 4.1 nM	1.44	–
[12], 12.3 nM	0.954	–
[12], 37 nM	1.24	–
[12], 111.1 nM	1.69	–
[12], 333.3 nM	2.92	–
[12], 1000 nM	3.78	–
[12], 3000 nM	5.02	–
[13], 4.1 nM	3.74	–
[13], 12.3 nM	1.61	–
[13], 37 nM	2.27	–
[13], 111.1 nM	3.75	–
[13], 333.3 nM	6.65	–
[13], 1000 nM	7.84	–
[13], 3000 nM	8.89	–
[14], 4.1 nM	1.34	–
[14], 12.3 nM	0.713	–
[14], 37 nM	1.46	–
[14], 111.1 nM	1.24	–
[14], 333.3 nM	3.06	–
[14], 1000 nM	2.47	–
[14], 3000 nM	2.06	–

CCCCCC[C@H]1C(=O)O[C@H](C)[C@H](NC(=O)c2cccc(NC=O)c2O)C(=O)O[C@@H](C)[C@@H]1OC(=O)CC(C)C [Antimycin A]
Conditions	phenotypic distance	surviving fraction
[1], 4.1 nM	–	0.562
[1], 12.3 nM	–	0.544
[1], 37 nM	–	0.546
[1], 111.1 nM	–	0.571
[1], 333.3 nM	–	0.512
[1], 1000 nM	–	0.538
[1], 3000 nM	–	0.416
[2], 4.1 nM	–	0.588
[2], 12.3 nM	–	0.629
[2], 37 nM	–	0.542
[2], 111.1 nM	–	0.55
[2], 333.3 nM	–	0.594
[2], 1000 nM	–	0.585
[2], 3000 nM	–	0.494
[3], 4.1 nM	–	0.8
[3], 12.3 nM	–	0.561
[3], 37 nM	–	0.625
[3], 111.1 nM	–	0.585
[3], 333.3 nM	–	0.506
[3], 1000 nM	–	0.527
[3], 3000 nM	–	0.521
[4], 4.1 nM	–	0.793
[4], 12.3 nM	–	0.864
[4], 37 nM	–	0.779
[4], 111.1 nM	–	0.683
[4], 333.3 nM	–	0.721
[4], 1000 nM	–	0.599
[4], 3000 nM	–	0.661
[5], 4.1 nM	–	0.771
[5], 12.3 nM	–	0.666
[5], 37 nM	–	0.745
[5], 111.1 nM	–	0.619
[5], 333.3 nM	–	0.717
[5], 1000 nM	–	0.682
[5], 3000 nM	–	0.652
[6], 4.1 nM	–	0.694
[6], 12.3 nM	–	0.642
[6], 37 nM	–	0.581
[6], 111.1 nM	–	0.515
[6], 333.3 nM	–	0.61
[6], 1000 nM	–	0.513
[6], 3000 nM	–	0.466
[7], 4.1 nM	–	0.95
[7], 12.3 nM	–	0.895
[7], 37 nM	–	0.872
[7], 111.1 nM	–	0.823
[7], 333.3 nM	–	0.719
[7], 1000 nM	–	0.929
[7], 3000 nM	–	0.659
[8], 4.1 nM	2.21	–
[8], 12.3 nM	2	–
[8], 37 nM	1.93	–
[8], 111.1 nM	2.18	–
[8], 333.3 nM	2.6	–
[8], 1000 nM	2.46	–
[8], 3000 nM	3.04	–
[9], 4.1 nM	3.65	–
[9], 12.3 nM	3.44	–
[9], 37 nM	4.09	–
[9], 111.1 nM	3.93	–
[9], 333.3 nM	3.39	–
[9], 1000 nM	3.78	–
[9], 3000 nM	3.71	–
[10], 4.1 nM	0.765	–
[10], 12.3 nM	1.08	–
[10], 37 nM	1.34	–
[10], 111.1 nM	1.41	–
[10], 333.3 nM	1.38	–
[10], 1000 nM	1.86	–
[10], 3000 nM	1.87	–
[11], 4.1 nM	1.51	–
[11], 12.3 nM	1.62	–
[11], 37 nM	1.68	–
[11], 111.1 nM	1.91	–
[11], 333.3 nM	2	–
[11], 1000 nM	1.59	–
[11], 3000 nM	1.73	–
[12], 4.1 nM	1.81	–
[12], 12.3 nM	2.11	–
[12], 37 nM	1.7	–
[12], 111.1 nM	2.19	–
[12], 333.3 nM	2.19	–
[12], 1000 nM	2.08	–
[12], 3000 nM	1.39	–
[13], 4.1 nM	2.07	–
[13], 12.3 nM	3.56	–
[13], 37 nM	4.06	–
[13], 111.1 nM	4.75	–
[13], 333.3 nM	4.39	–
[13], 1000 nM	4.71	–
[13], 3000 nM	5.22	–
[14], 4.1 nM	0.791	–
[14], 12.3 nM	1.47	–
[14], 37 nM	1.52	–
[14], 111.1 nM	1.43	–
[14], 333.3 nM	1.68	–
[14], 1000 nM	1.44	–
[14], 3000 nM	1.34	–

From the supplement of paper PMC13207355
